This note sets out measurements from patent publication US20240067632A1, “WEE1 Degrading Compounds and Uses Thereof” (Bristol-Myers Squibb Company, priority 2022, published 2024).

One assay deals with MKN45 cells. Kind of assay: MKN45 cell proliferation assay (Cell-Titer-Glo, 120 h). Particulars: for EC50: Homo sapiens, MKN-45, 120 h, Cell-Titer-Glo, read-out: MKN45 Cell Prolif. 120 hr (EC50); for MKN45 Cell Prolif. 120 hr (Ymin-Obs): minimal percent of DMSO control observed in the concentrations tested. The format is cell-based. The procedure, abridged:
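Growth inhibition was read as blank-corrected Cell-Titer-Glo luminescence expressed as percent DMSO control after 120 h at 37 C, 400 cells/well. Compounds tested in triplicate as 10-point half-log series from 1 or 10 uM, 0.1% DMSO; four-parameter fit gave EC50, and lowest observed percent control was reported as Ymin-obs.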

Another assay deals with T1, WEE1 (Homo sapiens, UniProt P30291+Q96SW2).
T1 construct: C-terminal ePL-tagged (DiscoverX, Fremont, CA) full-length WEE1 expression construct; expressed in transfected cells; host or cells: LentiX-HEK293T (Invitrogen), lentiviral transduction; co-expressing GSPT1-GN (G576N, lacking the first 158 amino acids)
Kind of assay: WEE1-ePL degradation assay (LentiX-WEE1-ePL-GSPT1-ND cells, InCELL Hunter luminescence, 4 h). The format is cell-based. Particulars: 293T-LentiX WEE1-ePL cells; for DC50: read-out: 293T-LentiX WEE1-ePL Degradation 4 hr (EC50). The procedure, abridged: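 Luminescent readout (InCELL Hunter, 30 min RT) of WEE1-ePL levels in transduced HEK293T cells after 4 h compound exposure at 37 °C. Dosing: 10 points, 3-fold steps, top 1 uM or 10 uM. EC50 from four-parameter logistic fit; Ymax set by DMSO.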

Where [1] appears, read: lower limit of the fit (0 = luciferase inhibitor, Ymax = DMSO control).
Where [2] appears, read: lower limit of the fit (Ymin=0 luciferase inhibitor, Ymax DMSO control).

Where two headings read alike, the source gives them in different places.

Take `O=C1CCC(N2Cc3cc(O[C@H]4CCN(Cc5ccc6nc([C@H]7CC[C@H](O)C7)ccc6c5)C4)ccc3C2=O)C(=O)N1` (stereo partly drawn) [3-(5-{[(3S)-1-({2-[(1S,3S)-3-hydroxycyclopentyl]quinolin-6-yl}methyl)pyrrolidin-3-yl]oxy}-1-oxo-2,3-dihydro-1H-isoindol-2-yl)piperidine-2,6-dione]: the EC50 with MKN45 cells (growth inhibition) was 3.24 nM. Moreover, the “MKN45 Cell Prolif. 120 hr (Ymin-Obs)” value in the assay with MKN45 cells came to 8.695. Also, the “293T-LentiX WEE1-ePL Degradation 4 hr (Ymin)” value on WEE1 (setting [1]) was found to be 27.5. Besides, the DC50 on WEE1 came out at 2.67 nM.

Consider `CO[C@H]1CCC[C@H](c2ccc3cc(CN4CC[C@H](Oc5ccc6c(c5)CN(C5CCC(=O)NC5=O)C6=O)C4)ccc3n2)C1` (stereo partly drawn) [3-(5-{[(3S)-1-({2-[(1S,3S)-3-methoxycyclohexyl]quinolin-6-yl}methyl)pyrrolidin-3-yl]oxy}-1-oxo-2,3-dihydro-1H-isoindol-2-yl)piperidine-2,6-dione], for which the EC50 with MKN45 cells (growth inhibition) worked out at 2.01 nM. Also, the “MKN45 Cell Prolif. 120 hr (Ymin-Obs)” value in the assay on MKN45 cells stood at 9.255. For the same compound, at WEE1 (setting [1]), the “293T-LentiX WEE1-ePL Degradation 4 hr (Ymin)” value was 30.5. Further, the DC50 on WEE1 worked out at 3.58 nM.

On to `CO[C@H]1CC[C@H](c2ccc3cc(CN4CC[C@H](Oc5ccc6c(c5)CN(C5CCC(=O)NC5=O)C6=O)C4)ccc3n2)C1` (stereo partly drawn) [3-(5-{[(3S)-1-({2-[(1S,3S)-3-methoxycyclopentyl]quinolin-6-yl}methyl)pyrrolidin-3-yl]oxy}-1-oxo-2,3-dihydro-1H-isoindol-2-yl)piperidine-2,6-dione], for which the EC50 in the assay with MKN45 cells (growth inhibition) amounted to 4.8 nM. In addition, the “MKN45 Cell Prolif. 120 hr (Ymin-Obs)” value in the assay on MKN45 cells amounted to 8.927. For the same compound, at WEE1 (setting [1]), the “293T-LentiX WEE1-ePL Degradation 4 hr (Ymin)” value was found to be 32.5. At WEE1, the DC50 stood at 6.19 nM.

With `O=C1CCC(N2Cc3cc(O[C@H]4CCN(Cc5ccc6nc(N7C[C@@H]8C[C@H]7CO8)ncc6c5)C4)ccc3C2=O)C(=O)N1` (stereo partly drawn) [3-(5-{[(3S)-1-({2-[(1S,4S)-2-oxa-5-azabicyclo[2.2.1]heptan-5-yl]quinazolin-6-yl}methyl)pyrrolidin-3-yl]oxy}-1-oxo-2,3-dihydro-1H-isoindol-2-yl)piperidine-2,6-dione], the 50% effective concentration (EC50) in the assay on MKN45 cells (growth inhibition) amounted to 9.86 nM. The “MKN45 Cell Prolif. 120 hr (Ymin-Obs)” value in the assay with MKN45 cells is reported as 9.576. The “293T-LentiX WEE1-ePL Degradation 4 hr (Ymin)” value at WEE1 (setting [1]) is reported as 34.5. Moreover, the DC50 on WEE1 stood at 12.3 nM.

Turning to `O=C1CCC(N2Cc3cc(O[C@H]4CCN(Cc5ccc6nc(N7C[C@@H]8C[C@H]7CO8)ccc6c5)C4)ccc3C2=O)C(=O)N1` (stereo partly drawn) [3-(5-{[(3S)-1-({2-[(1S,4S)-2-oxa-5-azabicyclo[2.2.1]heptan-5-yl]quinolin-6-yl}methyl)pyrrolidin-3-yl]oxy}-1-oxo-2,3-dihydro-1H-isoindol-2-yl)piperidine-2,6-dione], the EC50 in the assay on MKN45 cells (growth inhibition) was 5.54 nM. In the assay with MKN45 cells, the “MKN45 Cell Prolif. 120 hr (Ymin-Obs)” value was found to be 8.09. At WEE1 (setting [1]), the “293T-LentiX WEE1-ePL Degradation 4 hr (Ymin)” value worked out at 34. Besides, the DC50 at WEE1 was 2.98 nM.

Regarding `C[C@@H]1CC(c2ccc3cc(CN4CC[C@H](Oc5ccc6c(c5)CN(C5CCC(=O)NC5=O)C6=O)C4)ccc3n2)CCO1` (stereo partly drawn) [3-(5-{[(3S)-1-({2-[(2R)-2-methyloxan-4-yl]quinolin-6-yl}methyl)pyrrolidin-3-yl]oxy}-1-oxo-2,3-dihydro-1H-isoindol-2-yl)piperidine-2,6-dione], in the assay on MKN45 cells (growth inhibition), the EC50 is 10.9 nM. For the same compound, the “MKN45 Cell Prolif. 120 hr (Ymin-Obs)” value in the assay with MKN45 cells is 14.5. In addition, the “293T-LentiX WEE1-ePL Degradation 4 hr (Ymin)” value at WEE1 (setting [1]) amounted to 29.54. Further, on WEE1, the DC50 is 10.5 nM.

As to `C[C@@H]1CC(c2ccc3cc(CN4CC[C@H](Oc5ccc6c(c5)CN(C5CCC(=O)NC5=O)C6=O)C4)ccc3n2)C[C@@H](C)O1` (stereo partly drawn) [3-(5-{[(3S)-1-({2-[(2R,6R)-2,6-dimethyloxan-4-yl]quinolin-6-yl}methyl)pyrrolidin-3-yl]oxy}-1-oxo-2,3-dihydro-1H-isoindol-2-yl)piperidine-2,6-dione], in the assay on MKN45 cells, the EC50 was 5.09 nM and the “MKN45 Cell Prolif. 120 hr (Ymin-Obs)” value was 10.09. Further, on WEE1 (setting [2]), the “293T-LentiX WEE1-ePL Degradation 4 hr (Ymin)” value amounted to 25.33. Besides, the DC50 on WEE1 is 5.2 nM.

For `C[C@@H]1CC(c2ccc3cc(CN4CC[C@H](Oc5ccc6c(c5)CN(C5CCC(=O)NC5=O)C6=O)C4)ccc3n2)C[C@H](C)O1` (stereo partly drawn) [3-(5-{[(3S)-1-({2-[(2R,6S)-2,6-dimethyloxan-4-yl]quinolin-6-yl}methyl)pyrrolidin-3-yl]oxy}-1-oxo-2,3-dihydro-1H-isoindol-2-yl)piperidine-2,6-dione], the EC50 in the assay with MKN45 cells (growth inhibition) is 10.4 nM. For the same compound, the “MKN45 Cell Prolif. 120 hr (Ymin-Obs)” value in the assay with MKN45 cells was 14.48. Further, the “293T-LentiX WEE1-ePL Degradation 4 hr (Ymin)” value on WEE1 (setting [1]) turned out to be 30.42. Further, on WEE1, the DC50 was 11.7 nM.

Turning to `C[C@H]1CC(c2ccc3cc(CN4CC[C@H](Oc5ccc6c(c5)CN(C5CCC(=O)NC5=O)C6=O)C4)ccc3n2)CCO1` (stereo partly drawn) [3-(5-{[(3S)-1-({2-[(2S)-2-methyloxan-4-yl]quinolin-6-yl}methyl)pyrrolidin-3-yl]oxy}-1-oxo-2,3-dihydro-1H-isoindol-2-yl)piperidine-2,6-dione], the EC50 in the assay with MKN45 cells (growth inhibition) was found to be 4.39 nM. Moreover, the “MKN45 Cell Prolif. 120 hr (Ymin-Obs)” value in the assay with MKN45 cells was 10.88. Moreover, the “293T-LentiX WEE1-ePL Degradation 4 hr (Ymin)” value at WEE1 (setting [1]) is 28.55. The DC50 at WEE1 came out at 2.97 nM.

As for `CN1CC[C@@H](c2ncc3cc(CN4CC[C@H](Oc5ccc6c(c5)CN(C5CCC(=O)NC5=O)C6=O)C4)ccc3n2)C1` (stereo partly drawn) [3-(5-{[(3S)-1-({2-[(3R)-1-methylpyrrolidin-3-yl]quinazolin-6-yl}methyl)pyrrolidin-3-yl]oxy}-1-oxo-2,3-dihydro-1H-isoindol-2-yl)piperidine-2,6-dione], in the assay on MKN45 cells, the EC50 was 48.4 nM and the “MKN45 Cell Prolif. 120 hr (Ymin-Obs)” value amounted to 13.19. For the same compound, the “293T-LentiX WEE1-ePL Degradation 4 hr (Ymin)” value on WEE1 (setting [2]) came to 37.05. In addition, the DC50 on WEE1 turned out to be 225 nM.

For `CN1CC[C@@H](c2ccc3cc(CN4CC[C@H](Oc5ccc6c(c5)CN(C5CCC(=O)NC5=O)C6=O)C4)ccc3n2)C1` (stereo partly drawn) [3-(5-{[(3S)-1-({2-[(3R)-1-methylpyrrolidin-3-yl]quinolin-6-yl}methyl)pyrrolidin-3-yl]oxy}-1-oxo-2,3-dihydro-1H-isoindol-2-yl)piperidine-2,6-dione], the EC50 in the assay on MKN45 cells (growth inhibition) is 90.5 nM. For the same compound, the “MKN45 Cell Prolif. 120 hr (Ymin-Obs)” value in the assay on MKN45 cells is reported as 11.69. Moreover, the “293T-LentiX WEE1-ePL Degradation 4 hr (Ymin)” value at WEE1 (setting [1]) amounted to 37. Also, the DC50 on WEE1 amounted to 67.4 nM.

With `O=C1CCC(N2Cc3cc(O[C@H]4CCN(Cc5ccc6nc(N7CC[C@@H](O)C7)ccc6c5)C4)ccc3C2=O)C(=O)N1` (stereo partly drawn) [3-(5-{[(3S)-1-({2-[(3R)-3-hydroxypyrrolidin-1-yl]quinolin-6-yl}methyl)pyrrolidin-3-yl]oxy}-1-oxo-2,3-dihydro-1H-isoindol-2-yl)piperidine-2,6-dione], in the assay on MKN45 cells (growth inhibition), the EC50 was found to be 20.9 nM. The “MKN45 Cell Prolif. 120 hr (Ymin-Obs)” value in the assay with MKN45 cells came out at 11.85. At WEE1 (setting [1]), the “293T-LentiX WEE1-ePL Degradation 4 hr (Ymin)” value is listed as 36. In addition, at WEE1, the DC50 was found to be 17.5 nM.

Consider `CO[C@@H]1CCCN(c2ccc3cc(CN4CC[C@H](Oc5ccc6c(c5)CN(C5CCC(=O)NC5=O)C6=O)C4)ccc3n2)C1` (stereo partly drawn) [3-(5-{[(3S)-1-({2-[(3R)-3-methoxypiperidin-1-yl]quinolin-6-yl}methyl)pyrrolidin-3-yl]oxy}-1-oxo-2,3-dihydro-1H-isoindol-2-yl)piperidine-2,6-dione], for which the EC50 in the assay on MKN45 cells (growth inhibition) amounted to 3.91 nM. Besides, the “MKN45 Cell Prolif. 120 hr (Ymin-Obs)” value in the assay on MKN45 cells was determined as 6.79. In addition, on WEE1 (setting [1]), the “293T-LentiX WEE1-ePL Degradation 4 hr (Ymin)” value was 34. For the same compound, the DC50 on WEE1 is 4.32 nM.

For orientation: EC50 means the concentration that produces a half-maximal response.
